# Test results as given in patent US20060046966A1, “Antipicornaviral compounds and compositions, their pharmaceutical uses, and materials for their synthesis” (Agouron Pharmaceuticals, Inc., priority 1998, published 2006).
# Where two headings read alike, the source gives them in different places.
# Assays:
# HRV (16) = test: Antirhinoviral H1-HeLa cell culture assay, HRV serotype 16; type: cell-based; details: Human rhinovirus sp., H1-HeLa cells, XTT
# Experimental: (§1) In this cell protection assay, the ability of compounds to protect cells against HRV infection was measured by the XTT dye reduction method, which is described in Weislow et al., J. Natl. Cancer Inst. 1989, vol. 81, 577-586.
# (§2) H1-HeLa cells were infected with HRV-14 at a multiplicity of infection (m.o.i.) of 0.13 (virus particles/cell) or mock-infected with medium only. Infected or mock-infected cells were resuspended at 8×10^5 cells per mL, and incubated with appropriate concentrations of the compounds to be tested. Two days later, XTT/PMS was added to test plates and the amount of formazan produced was quantified spectrophotometrically at 450/650 nm. The EC50 value was calculated as the concentration of compound that increased the percentage of formazan production in compound-treated, virus-infected cells to 50% of that produced by compound-free, mock-infected cells. The 50% cytotoxic dose (CC50) was calculated as the concentration of compound that decreased the percentage of formazan produced in compound-treated, mock-infected cells to 50% of that produced by compound-free, mock-infected cells. The therapeutic index (TI) was calculated by dividing the CC50 value by the EC50 value.
# (§3) All strains of human rhinovirus (HRV) for use in this assay were purchased from American Type Culture Collection (ATCC), except for HRV serotype-14 (produced from the infectious cDNA clone constructed by Dr. Robert Rueckert, Institute for Molecular Virology, University of Wisconsin, Madison, Wis.). HRV stocks were propagated and viral assays were performed in H1-HeLa cells (ATCC). Cells were grown in minimal essential medium with 10% fetal bovine serum, available from Life Technologies (Gaithersburg, Md.).
# (§4) The compounds were tested against control compounds WIN 51711, WIN 52084, and WIN 54954 (obtained from Sterling-Winthrop Pharmaceuticals), Pirodavir (obtained from Janssen Pharmaceuticals), and Pleconaril (prepared according to the method described in Diana et al., J. Med. Chem 1995, vol. 38, 1355). […]
# HRV (2) = test: Antirhinoviral H1-HeLa cell culture assay, HRV serotype 2; type: cell-based, human rhinovirus; details: Human rhinovirus sp., H1-HeLa, H1-HeLa cells, XTT
# Experimental: as §1, §2, §3
# (§5) The compounds were tested against control compounds WIN 51711, WIN 52084, and WIN 54954 (obtained from Sterling-Winthrop Pharmaceuticals), Pirodavir (obtained from Janssen Pharmaceuticals), and Pleconaril (prepared according to the method described in Diana et al., J. Med. Chem 1995, vol. 38, 1355). Antiviral data obtained for the test compounds are shown in Tables 1 and 3, where all data are for HRV serotype-14 unless otherwise noted in parentheses.
# HRV (9) = test: Antirhinoviral H1-HeLa cell culture assay, HRV serotype 9; type: cell-based, human rhinovirus; details: Human rhinovirus sp., H1-HeLa cells, XTT
# Experimental: as §1, §2, §3, §4
# HRV (3) = test: Antirhinoviral H1-HeLa cell culture assay, HRV serotype 3; type: cell-based, human rhinovirus; details: Human rhinovirus sp., H1-HeLa, H1-HeLa cells, XTT
# Experimental: as §1, §2, §3, §4
# [1] = target: T1, rhinovirus 3C protease from HRV serotype-14 (Human rhinovirus 14, UniProt P03303); test: Inhibition of rhinovirus 3C protease (FRET assay), serotype 14; type: biochemical; details: HRV serotype-14 3C protease; progress curves in enzyme start experiments; read-out: Protease Inhibition kobs/[I]
# T1 construct: Recombinant rhinovirus 3C proteases; made in house
# T1 sequence (P03303 1538-1719): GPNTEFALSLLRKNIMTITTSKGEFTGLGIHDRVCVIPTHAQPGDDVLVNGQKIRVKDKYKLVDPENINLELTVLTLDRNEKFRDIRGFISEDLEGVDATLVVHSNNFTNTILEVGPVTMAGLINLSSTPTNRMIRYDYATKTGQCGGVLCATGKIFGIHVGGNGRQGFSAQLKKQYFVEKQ
# Experimental: Stock solutions (50 mM, in DMSO) of various compounds were prepared; dilutions were in the same solvent. Recombinant rhinovirus 3C proteases (see Birch et al., “Purification of recombinant human rhinovirus 14 3C protease expressed in Escherichia coli,” Protein Expr. Pur. 1995, 6(5), 609-618) from serotypes 14, 16, and 2 were prepared by the following standard chromatographic procedures: (1) ion exchange using Q Sepharose Fast Flow from Pharmacia; (2) affinity chromatography using Affi-Gel Blue from Biorad; and (3) sizing using Sephadex G-100 from Pharmacia. Each assay sample contained 2% DMSO, 50 mM tris pH 7.6, 1 mM EDTA, a test compound at the indicated concentration, approximately 1 μM substrate, and 50-100 nM protease. The kobs/I values were obtained from reactions initiated by addition of enzyme rather than substrate. RVP activity was measured in the fluorescence resonance energy transfer assay. The substrate was (N-terminal) DABCYL-(Gly-Arg-Ala-Val-Phe-Gln-Gly-Pro-Val-Gly)-EDANS. In the uncleaved peptide, the EDANS fluorescence was quenched by the proximal DABCYL moiety. When the peptide was cleaved, the quenching was relieved, and activity was measured as an increase in fluorescence signal. In Table 1, all data are for rhinovirus 3C protease from HRV serotype-14 (produced from the infectious cDNA clone constructed by Dr. Robert Rueckert, Institute for Molecular Virology, University of Wisconsin, Madison, Wis.). […] The data in the column designated kobs/[I] were measured from progress curves in enzyme start experiments.
# HRV (89) = test: Antirhinoviral H1-HeLa cell culture assay, HRV serotype 89; type: cell-based, human rhinovirus; details: Human rhinovirus sp., H1-HeLa cells, XTT
# Experimental: as §1, §2, §3, §5
# HRV (87) = test: Antirhinoviral H1-HeLa cell culture assay, HRV serotype 87; type: cell-based; details: Human rhinovirus sp., H1-HeLa cells, XTT
# Experimental: as §1
# as §2, with “value. […]” for “value.”
# HRV (1A) = test: Antirhinoviral H1-HeLa cell culture assay, HRV serotype 1A; type: cell-based; details: Human rhinovirus sp., H1-HeLa cells, XTT
# Experimental: as §1, §2, §3, §5
# HRV (13) = test: Antirhinoviral H1-HeLa cell culture assay, HRV serotype 13; type: cell-based, human rhinovirus; details: Human rhinovirus sp., H1-HeLa, H1-HeLa cells, XTT
# Experimental: as §1, §2, §3, §4
# HRV (39) = test: Antirhinoviral H1-HeLa cell culture assay, HRV serotype 39; type: cell-based, human rhinovirus; details: Human rhinovirus sp., H1-HeLa cells, XTT
# Experimental: as §1, §2, §3, §4
# HRV-14 = test: Antirhinoviral H1-HeLa cell culture assay, HRV-14; type: cell-based, human rhinovirus; details: Rhinovirus B, HRV14, H1-HeLa, HRV serotype-14, H1-HeLa cells
# Experimental: as §1, §2, §3, §5
# HRV (10) = test: Antirhinoviral H1-HeLa cell culture assay, HRV serotype 10; type: cell-based, human rhinovirus; details: Human rhinovirus sp., H1-HeLa, H1-HeLa cells, XTT
# Experimental: as §1, §2, §3, §5
# HRV (30) = test: Antirhinoviral H1-HeLa cell culture assay, HRV serotype 30; type: cell-based; details: Human rhinovirus sp., H1-HeLa cells, XTT
# Experimental: as §1
# as §2, with “value. […]” for “value.”
# HRV (25) = test: Antirhinoviral H1-HeLa cell culture assay, HRV serotype 25; type: cell-based; details: Human rhinovirus sp., H1-HeLa cells, XTT
# Experimental: as §1
# as §2, with “value. […]” for “value.”
# HRV (17) = test: Antirhinoviral H1-HeLa cell culture assay, HRV serotype 17; type: cell-based, human rhinovirus; details: Human rhinovirus sp., H1-HeLa cells, XTT
# Experimental: as §1, §2, §3, §4
# HRV (12) = test: Antirhinoviral H1-HeLa cell culture assay, HRV serotype 12; type: cell-based; details: Human rhinovirus sp., H1-HeLa cells, XTT
# Experimental: as §1
# as §2, with “value. […]” for “value.”
# HRV (38) = test: Antirhinoviral H1-HeLa cell culture assay, HRV serotype 38; type: cell-based; details: Human rhinovirus sp., H1-HeLa cells, XTT
# Experimental: as §1
# as §2, with “value. […]” for “value.”
# [2] = tested on: enterovirus type 70 (EV 70); test: Anti-enteroviral cell culture assay, EV 70; type: cell-based; details: Enterovirus D, MRC5, 96 h; Strain EV-70; MRC-5 cells; four days; XTT
# Experimental: (§6) Echovirus type 11 (EV 11) and enterovirus type 70 (EV 70) were purchased from ATCC (Rockville, Md.). Virus stocks were propagated and antiviral assays were performed in MRC-5 cells (ATCC). Cells were grown in minimal essential medium with 10% fetal bovine serum (Life Technologies, Gaithersburg, Md.).
# The ability of compounds to protect cells against either EV 11 or EV 70 infection was measured by the XTT dye reduction method (Weislow et al., J. Natl. Cancer Inst. 1989, vol. 81, 577-586). MRC-5 cells were infected with EV 11 or EV 70 at an m.o.i. of 0.003 or 0.004, respectively, or mock-infected with medium only. Infected or uninfected cells were added at 1×10^4 cells per well and incubated with appropriate concentrations of compound. Four days later, XTT/PMS was added to test plates, and the amount of formazan produced was quantified spectrophotometrically at 450/650 nm. The EC50 was calculated as the concentration of compound that increased the formazan production in compound-treated, virus-infected cells to 50% of that produced by compound-free, uninfected cells. The 50% cytotoxic dose (CC50) was calculated as the concentration of compound that decreased formazan production in compound-treated, uninfected cells to 50% of that produced in compound-free, uninfected cells. The therapeutic index (TI) was calculated by dividing the CC50 by the EC50. […]
# [3] = tested on: Coxsackievirus type B3 (CVB-3); test: Anticoxsackieviral cell culture assay, CVB-3; type: cell-based; details: 24 h, Strain CVB-3, H1-HeLa cells, one day, XTT, read-out: EC50
# Experimental: (§7) Coxsackievirus types A-21 (CAV-21) and B3 (CVB-3) were purchased from American Type Culture Collection (ATCC, Rockville, Md.). Virus stocks were propagated and antiviral assays were performed in H1-HeLa cells (ATCC). Cells were grown in minimal essential medium with 10% fetal bovine serum (Life Technologies, Gaithersburg, Md.).
# (§8) The ability of compounds to protect cells against either CAV-21 or CVB-3 infection was measured by the XTT dye reduction method. This method is described in Weislow et al., J. Natl. Cancer Inst. 1989, vol. 81, 577-586. H1-HeLa cells were infected with CAV-21 or CVB-3 at a multiplicity of infection (m.o.i.) of 0.025 or 0.075, respectively, or mock-infected with medium only. H1-HeLa cells were plated at 4×10^4 cells per well in a 96-well plate and incubated with appropriate concentrations of the test compound. One day (CVB-3) or two days (CAV-21) later, XTT/PMS was added to test plates and the amount of formazan produced was quantified spectrophotometrically at 450/650 nm. The EC50 was calculated as the concentration of compound that increased the formazan production in compound-treated, virus-infected cells to 50% of that produced by compound-free, uninfected cells. The 50% cytotoxic dose (CC50) was calculated as the concentration of compound that decreased formazan production in compound-treated, uninfected cells to 50% of that produced in compound-free, uninfected cells. The therapeutic index TI) was calculated by dividing the CC50 by the EC50.
# (§9) The compounds were tested against control compounds WIN 54954 (obtained from Sterling-Winthrop Pharmaceuticals), Pirodavir (obtained from Janssen Pharmaceuticals), and Pleconaril (prepared according to Diana et al., J. Med. Chem. 1995, 38, 1355).
# [4] = tested on: Echovirus type 11 (EV 11); test: Anti-echoviral cell culture assay, EV 11; type: cell-based; details: Enterovirus B, MRC5, 96 h; Strain EV-11; MRC-5 cells; four days; XTT; read-out: EC50
# Experimental: as §6
# The ability of compounds to protect cells against either EV 11 or EV 70 infection was measured by the XTT dye reduction method (Weislow et al., J. Natl. Cancer Inst. 1989, vol. 81, 577-586). MRC-5 cells were infected with EV 11 or EV 70 at an m.o.i. of 0.003 or 0.004, respectively, or mock-infected with medium only. Infected or uninfected cells were added at 1×10^4 cells per well and incubated with appropriate concentrations of compound. Four days later, XTT/PMS was added to test plates, and the amount of formazan produced was quantified spectrophotometrically at 450/650 nm. The EC50 was calculated as the concentration of compound that increased the formazan production in compound-treated, virus-infected cells to 50% of that produced by compound-free, uninfected cells. The 50% cytotoxic dose (CC50) was calculated as the concentration of compound that decreased formazan production in compound-treated, uninfected cells to 50% of that produced in compound-free, uninfected cells. The therapeutic index (TI) was calculated by dividing the CC50 by the EC50.
# The compounds were tested against control compounds Pirodavir (obtained from Janssen Pharmaceuticals) and Pleconaril (prepared according to Diana et al., J. Med. Chem. 1995, vol. 38, 1355). Antiviral data obtained for the test compounds against strain EV 11 and EV 70 are shown below in Table 5.
# [5] = tested on: Coxsackievirus type A-21 (CAV-21); test: Anticoxsackieviral cell culture assay, CAV-21; type: cell-based; details: 48 h, Strain CAV-21, H1-HeLa cells, two days, XTT, read-out: EC50
# Experimental: as §7, §8, §9
smiles,measurement,setting,value
"CCOC(=O)/C=C/[C@H](C[C@@H]1CCNC1=O)NC(=O)[C@H](Cc1ccc(F)cc1)OC(=O)[C@@H](NC(=O)c1cc(C)on1)C(C)C [Compound C-2, Ethyl-3-{(5′-Methylisoxazole-3′-carbonyl)-L-Val-O-L-(4-F-Phe)-L-((S)-Pyrrol-Ala)}-E-Propenoate]",EC50,HRV (16),10 nM
same,EC50,HRV (2),4 nM
same,EC50,HRV (9),10 nM
same,EC50,HRV (3),20 nM
same,kinact/KI,[1],270000 M⁻¹ s⁻¹
same,EC50,HRV (89),4 nM
same,EC50,HRV (87),20 nM
same,EC50,HRV (1A),10 nM
same,EC50,HRV (13),7 nM
same,EC50,HRV (39),10 nM
same,EC50,"HRV-14; Table 1, XTT dye reduction, read-out: Cell Protection EC50",2 nM
same,EC50,"HRV-14; Table 3, XTT, read-out: EC50",2 nM
same,EC50,HRV (10),20 nM
same,EC50,HRV (30),30 nM
same,EC50,HRV (25),70 nM
same,EC50,HRV (17),7 nM
same,EC50,HRV (12),40 nM
same,EC50,HRV (38),50 nM
"CCOC(=O)c1ccc(OCCC2CCN(c3ccc(C)nn3)CC2)cc1 [Pirodavir, reference compound]",EC50,[2],60 nM
same,EC50,[3],> 100000 nM
same,EC50,[4],3700 nM
same,EC50,[5],> 100000 nM
same,EC50,"HRV-14; Table 3, XTT, read-out: EC50",30 nM
